Results from article PMC11877508, “Anti-inflammatory and Hepatoprotective Iridoid Glycosides from the Roots of Gomphandra mollis” (Journal of Natural Products, 2025).
Like-named read-outs stand apart in the source and are kept apart here.

Assays:
in vitro [1] = settings: human
Protocol: (§1) Human hepatocellular carcinoma HepG2 cells were cultured in DMEM (Gibco) supplemented with 10% FBS (Gibco) and 1% antibiotic–antimycotic (Gibco, 15240062). Once cells reached approximately 80% confluence, they were washed with PBS and detached using trypsin-EDTA (Gibco, 25200072) at 37 °C for 5 min. Cells were then seeded into 96-well plates at a density of 3 × 10^4 cells per well (100 μL/well) and incubated for 24 h at 37 °C in a humidified atmosphere with 5% CO2.
(§2) After the initial incubation, the medium was replaced with 100 μL of fresh medium containing the test compounds, and the cells were incubated for an additional 48 h. Cell viability was determined using the MTT assay, following standard protocols with untreated cells serving as the control. The percentage of cell viability was calculated using the following formula: % viability = [(number of viable cells)/(total cells)] × 100. The concentration of the test compounds was set at 80 μM for the screening.

[2] = tested on: NO production in LPS-stimulated RAW264.7 cells; experiment: Inhibition of nitric oxide (NO) production in LPS-stimulated RAW264.7 cells (Griess reagent); assay type: cell-based; settings: 1 μg/mL LPS, read-out: IC50 value, NO production inhibitory effect
Protocol: (§3) RAW264.7 cells were cultured in Dulbecco’s modified essential medium (DMEM, Gibco). The cells were incubated at 37 °C in DMEM with 10% fetal bovine serum (FBS, Gibco), penicillin (100 U/mL, Gibco), and streptomycin sulfate (100 μg/mL, Gibco) under a humidified atmosphere containing 5% CO2. Briefly, 2 × 10^4 cells/well treated for 24 h with vehicle or compounds were examined for cell viability based on the MTT (3-(4,5-dimethylthiazol-2-yl)-2,5-diphenyltetrazolium bromide assay) method.[60] Survival of macrophage cells after treatment with compounds was measured at a wavelength of 570 nm.
(§4) RAW264.7 cells (2 × 10^4 cells/well) were stimulated with or without 1 μg/mL lipopolysaccharide (LPS, Sigma) for 24 h in the presence or absence of the test compounds at different concentrations. Afterward, 100 μL of the cell culture supernatant was mixed with 100 μL of Griess reagent.[61] The remaining cells from the Griess assay were then utilized to determine their viability by using the MTT colorimetric assay described above.

in vitro [3] = experiment: in vitro
Protocol: as §3, §4

[4] = RAW264.7 cell viability (MTT) alongside the NO assay; settings: RAW264.7 cells
Protocol: as §3, §4

[5] = HepG2 cytotoxicity test (MTT, 48 h); settings: human, HepG2 cells
Protocol: as §1, §2

[6] = Hepatoprotective effect in acetaminophen-induced hepatotoxicity in HepG2 cell model (MTT); assay type: cell-based; settings: human, HepG2 cells, HepG2, 6 mM APAP, control without APAP 100%, read-out: Cell viability, treated only with acetaminophen (APAP)
Protocol: Compounds that maintained cell viability above 80% were subsequently tested for their hepatoprotective properties using an acetaminophen-induced hepatotoxicity model in HepG2 cells. […] Afterward, the cells were treated with the test compounds. Eight hours later, hepatotoxicity was induced by adding acetaminophen (6 mM, Sigma-Aldrich A7085) to the wells. Cell viability was measured using the MTT assay 36 h after acetaminophen exposure, and the results were used to assess the hepatoprotective effects of the compounds.

SMILES	IC50 ([2]; Mus musculus, RAW264.7, 24 h) [µM]	viability at 48 h, 80 µM [4] [%]	viability at 48 h, 80 µM [5] [%]	also measured
C=C[C@H]1[C@H](O[C@@H]2O[C@H](CO)[C@@H](O)[C@H](O)[C@H]2O)OC=C2C(=O)OCC[C@H]21 [Compound 13, sweroside]	–	–	–	viability at 48 h, 80 µM (in vitro [1]): > 80%; IC50 ([2]; Mus musculus, 24 h): 36 ± 1.6 µM; viability at 48 h, 80 µM (in vitro [3]): 94.7 ± 4.2%
C[C@@H]1C[C@H]2[C@@H]3CCC4=CC(=O)C=C[C@]4(C)[C@@]3(F)[C@@H](O)C[C@]2(C)[C@@]1(O)C(=O)CO [dexamethasone, reference compound]	9.08 ± 0.5	–	–	viability at 48 h, 20 µM [4]: 96.3 ± 2.6%
C=C[C@H]1[C@H](O[C@@H]2O[C@H](CO)[C@@H](O)[C@H](O)[C@H]2O)OC=C(C(=O)O[C@H]2C[C@@H]3C(C(=O)OC)=CO[C@@H](O[C@@H]4O[C@H](CO)[C@@H](O)[C@H](O)[C@H]4O)[C@@H]3[C@H]2C)[C@H]1C1=CO[C@H]2C[C@@H]1C[C@@H]1C(C(=O)O[C@H]3C[C@@H]4C(C(=O)OC)=CO[C@@H](O[C@@H]5O[C@H](CO)[C@@H](O)[C@H](O)[C@H]5O)[C@@H]4[C@H]3C)=CO[C@@H](O[C@@H]3O[C@H](CO)[C@@H](O)[C@H](O)[C@H]3O)[C@H]21 [Compound 9, gomphandranoside I]	12.9 ± 0.5	98.3 ± 2.6	> 80	–
C=C[C@H]1[C@H](O[C@@H]2O[C@H](CO)[C@@H](O)[C@H](O)[C@H]2O)OC=C(C(=O)O[C@H]2C[C@@H]3C(C(=O)OC)=CO[C@@H](O[C@@H]4O[C@H](CO)[C@@H](O)[C@H](O)[C@H]4O)[C@@H]3[C@H]2C)[C@H]1C[C@H]1OC[C@H]2O[C@H](OC[C@H]3O[C@](O)(CO)[C@@H](O)[C@@H]3O)[C@H](O)[C@@H](O)[C@H]2O1 [Compound 5, gomphandranoside E]	17.7 ± 0.4	98.9 ± 3.1	> 80	–
CC(=O)Nc1ccc(O)cc1 [acetaminophen (APAP), acetaminophen]	–	–	–	viability at 36 h, 6 mM [6]: 68.1%
C=CC1C(CC(OC)OC)C(C(=O)O[C@H]2CC3C(C(=O)OC)=CO[C@@H](O[C@@H]4O[C@H](CO)[C@@H](O)[C@H](O)[C@H]4O)C3[C@H]2C)=CO[C@H]1O[C@@H]1O[C@H](CO)[C@@H](O)[C@H](O)[C@H]1O (stereo partly shown) [Compound 11, cantleyoside-dimethyl-acetal]	26.2 ± 1.3	94.8 ± 3.7	> 80	–
C=C[C@@H]1[C@H](O[C@@H]2O[C@H](CO)[C@@H](O)[C@H](O)[C@H]2O)OC=C(C(=O)O[C@H]2C[C@@H]3C(C(=O)OC)=CO[C@H](O[C@@H]4O[C@H](CO)[C@@H](O)[C@H](O)[C@H]4O)[C@@H]3[C@H]2C)[C@@H]1/C(C=O)=C\C[C@H]1C(C(=O)O[C@H]2C[C@@H]3CCOC(=O)[C@@H]3[C@H]2C)=CO[C@@H](O[C@@H]2O[C@H](CO)[C@@H](O)[C@H](O)[C@H]2O)[C@H]1C=C [Compound 8, gomphandranoside H]	14.4 ± 1.2	100 ± 2.5	–	–
COC(=O)C1=CO[C@@H](O[C@@H]2O[C@H](CO[C@H]3O[C@H](CO)[C@H](O)[C@H](O)[C@H]3O)[C@@H](O)[C@H](O)[C@H]2O)[C@@H]2[C@@H](C)[C@@H](O)C[C@H]12 [Compound 1, loganin 6′-O-α-D-galactopyranoside]	9.19	97.7 ± 2.3	–	IC50 ([2]; 24 h): 9.18 ± 0.3 µM
C=C[C@H]1[C@H](O[C@@H]2O[C@H](CO)[C@@H](O)[C@H](O)[C@H]2O)OC=C(C(=O)O[C@H]2C[C@@H]3C(C(=O)OC)=CO[C@@H](O[C@@H]4O[C@H](CO)[C@@H](O)[C@H](O)[C@H]4O)[C@@H]3[C@H]2C)[C@H]1C[C@@H]1O[C@@H]2[C@@H](O)[C@@H](OC[C@H]3O[C@@](CO)(O[C@H]4O[C@H](CO)[C@@H](O)[C@H](O)[C@H]4O)[C@@H](O)[C@@H]3O)O[C@H](CO)[C@@H]2O1 [Compound 6, gomphandranoside F]	20.2 ± 1.1	94.6 ± 4.5	> 80	–
C=C[C@H]1[C@H](O[C@@H]2O[C@H](CO)[C@@H](O)[C@H](O)[C@H]2O)OC=C(C(=O)O[C@H]2C[C@@H]3C(C(=O)OC)=CO[C@@H](O[C@@H]4O[C@H](CO)[C@@H](O)[C@H](O)[C@H]4O)[C@@H]3[C@H]2C)[C@H]1C[C@@H]1N[C@H](C(=O)O)Cc2c1[nH]c1ccccc21 [Compound 16, dipsaperine]	17 ± 1.1	95.2 ± 2.1	> 80	–
C=C[C@H]1[C@H](O[C@@H]2O[C@H](CO)[C@@H](O)[C@H](O)[C@H]2O)OC=C(C(=O)O[C@H]2C[C@@H]3C(C(=O)OC)=CO[C@@H](O[C@@H]4O[C@H](CO)[C@@H](O)[C@H](O)[C@H]4O)[C@@H]3[C@H]2C)[C@H]1C[C@H]1OC[C@H]2O[C@H](OC[C@H]3O[C@@](CO)(O[C@H]4O[C@H](CO)[C@@H](O)[C@H](O)[C@H]4O)[C@@H](O)[C@@H]3O)[C@H](O)[C@@H](O)[C@H]2O1 [Compound 4, gomphandranoside D]	19.5 ± 0.3	95.1 ± 2.8	> 80	–
C=C[C@H]1[C@H](O[C@@H]2O[C@H](CO)[C@@H](O)[C@H](O)[C@H]2O)OC=C(C(=O)O[C@H]2C[C@@H]3C(C(=O)OC)=CO[C@@H](O[C@@H]4O[C@H](CO)[C@@H](O)[C@H](O)[C@H]4O)[C@@H]3[C@H]2C)[C@H]1CC=O [Compound 12, cantleyoside]	–	93.9 ± 2.5	> 80	–
C=CC1C(CC=O)C(C(=O)O[C@H]2CC3C(C(=O)OC)=CO[C@@H](O[C@@H]4O[C@H](CO)[C@@H](O)[C@H](O)[C@H]4O)C3[C@H]2C)=CO[C@H]1O[C@@H]1O[C@H](CO)[C@@H](O)[C@H](O)[C@H]1O (stereo partly shown) [Compound 12, cantleyoside]	23.1 ± 1.7	–	–	–
C=C[C@H]1[C@H](O[C@@H]2O[C@H](CO)[C@@H](O)[C@H](O)[C@H]2O)OC=C(C(=O)O[C@H]2C[C@@H]3CCOC(=O)[C@@H]3[C@H]2C)[C@H]1C[C@@H](O)O[C@@H](O)C[C@@H]1C(C(=O)O[C@H]2C[C@@H]3CCOC(=O)[C@@H]3[C@H]2C)=CO[C@@H](O[C@@H]2O[C@H](CO)[C@@H](O)[C@H](O)[C@H]2O)[C@@H]1C=C [Compound 7, gomphandranoside G]	14.7 ± 0.9	95.3 ± 2.4	> 80	–
C=C[C@H]1[C@H](O[C@@H]2O[C@H](CO)C(O)[C@H](O)[C@H]2O)OC=C(C(=O)O[C@H]2C[C@@H]3CCOC(=O)[C@@H]3[C@H]2C)[C@H]1CC(OC)OC (stereo partly shown) [Compound 3, gomphandranoside C]	23.8 ± 2.6	103 ± 3.5	> 80	–
C=C[C@H]1[C@H](O[C@@H]2O[C@H](CO)[C@@H](O)[C@H](O)[C@H]2O)OC=C(C(=O)O[C@H]2C[C@@H]3C(C(=O)OC)=CO[C@@H](O[C@@H]4O[C@H](CO)[C@@H](O)[C@H](O)[C@H]4O)[C@@H]3[C@@H]2C)[C@H]1/C=C(\C=O)[C@@H]1C(C(=O)O[C@H]2C[C@@H]3C(C(=O)OC)=CO[C@@H](O[C@@H]4O[C@H](CO)[C@@H](O)[C@H](O)[C@H]4O)[C@@H]3[C@H]2C)=CO[C@@H](O[C@@H]2O[C@H](CO)[C@@H](O)[C@H](O)[C@H]2O)[C@@H]1C=C [Compound 17, dipsanoside B]	14.4 ± 1.5	94.2 ± 4.6	> 80	–
C=C[C@H]1[C@H](O[C@@H]2O[C@H](CO)[C@@H](O)[C@H](O)[C@H]2O)OC=C(C(=O)O[C@H]2C[C@@H]3C(C(=O)OC)=CO[C@@H](O[C@H]4O[C@H](CO)[C@@H](O)[C@H](O)[C@H]4O)[C@@H]3[C@H]2C)[C@H]1C1=COC[C@@H]2[C@H]3[C@@H](O[C@@H]4O[C@H](CO)[C@@H](O)[C@H](O)[C@H]4O)OC=C(C(=O)O[C@H]4C[C@@H]5C(C(=O)OC)=CO[C@@H](OC6O[C@H](CO)[C@@H](O)[C@H](O)[C@H]6O)[C@@H]5[C@H]4C)[C@H]3C[C@H]12 (stereo partly shown) [Compound 10, gomphandranoside K]	12.2 ± 1.1	96.7 ± 1.5	–	–
COC(=O)C1=CO[C@@H](O[C@@H]2O[C@H](CO)[C@@H](O)[C@H](O)[C@H]2O)[C@@H]2[C@@H](C)[C@@H](O)C[C@H]12 [Compound 18, loganin]	51.1 ± 1.8	98.1 ± 4	> 80	–
C=C[C@H]1[C@H](O[C@@H]2O[C@H](CO)[C@@H](O)[C@H](O)[C@H]2O)OC=C(C(=O)O[C@H]2C[C@@H]3C(C(=O)OC)=CO[C@@H](O[C@@H]4O[C@H](CO)[C@@H](O)[C@H](O)[C@H]4O)[C@@H]3[C@@H]2C)[C@H]1/C=C(\C=O)[C@@H]1C(C(=O)O[C@@H]2C[C@@H]3C(C(=O)OC)=CO[C@@H](O[C@@H]4O[C@H](CO)[C@@H](O)[C@H](O)[C@H]4O)[C@@H]3[C@@H]2C)=CO[C@@H](O[C@@H]2O[C@H](CO)[C@@H](O)[C@H](O)[C@H]2O)[C@@H]1C=C [Compound 15, dipsanoside A]	6.13 ± 0.5	99.5 ± 3.6	> 80	–
